Target: T1, full-length Abl1 NanoLuc fusion (Abl1-Nluc, NLuc-Abl1) (Homo sapiens, UniProt P00519)
T1 construct: full-length Abl1 fused to the C-terminus of NanoLuc luciferase (Promega plasmid), transiently expressed in HEK293T cells
Assay: NanoBRET tracer isotherm in live HEK293T cells
Type: cell-based
Settings: labelled compound; […] h; ATP site; read-out: Kd,app
From the text: NanoBRET tracer isotherm in live HEK293T cells on full-length Abl1 NanoLuc fusion (Abl1-Nluc, NLuc-Abl1) | tracer probe (K-4, Promega), suitable for all mutants

T1 sequence (P00519 whole entry, the tested form may be a part): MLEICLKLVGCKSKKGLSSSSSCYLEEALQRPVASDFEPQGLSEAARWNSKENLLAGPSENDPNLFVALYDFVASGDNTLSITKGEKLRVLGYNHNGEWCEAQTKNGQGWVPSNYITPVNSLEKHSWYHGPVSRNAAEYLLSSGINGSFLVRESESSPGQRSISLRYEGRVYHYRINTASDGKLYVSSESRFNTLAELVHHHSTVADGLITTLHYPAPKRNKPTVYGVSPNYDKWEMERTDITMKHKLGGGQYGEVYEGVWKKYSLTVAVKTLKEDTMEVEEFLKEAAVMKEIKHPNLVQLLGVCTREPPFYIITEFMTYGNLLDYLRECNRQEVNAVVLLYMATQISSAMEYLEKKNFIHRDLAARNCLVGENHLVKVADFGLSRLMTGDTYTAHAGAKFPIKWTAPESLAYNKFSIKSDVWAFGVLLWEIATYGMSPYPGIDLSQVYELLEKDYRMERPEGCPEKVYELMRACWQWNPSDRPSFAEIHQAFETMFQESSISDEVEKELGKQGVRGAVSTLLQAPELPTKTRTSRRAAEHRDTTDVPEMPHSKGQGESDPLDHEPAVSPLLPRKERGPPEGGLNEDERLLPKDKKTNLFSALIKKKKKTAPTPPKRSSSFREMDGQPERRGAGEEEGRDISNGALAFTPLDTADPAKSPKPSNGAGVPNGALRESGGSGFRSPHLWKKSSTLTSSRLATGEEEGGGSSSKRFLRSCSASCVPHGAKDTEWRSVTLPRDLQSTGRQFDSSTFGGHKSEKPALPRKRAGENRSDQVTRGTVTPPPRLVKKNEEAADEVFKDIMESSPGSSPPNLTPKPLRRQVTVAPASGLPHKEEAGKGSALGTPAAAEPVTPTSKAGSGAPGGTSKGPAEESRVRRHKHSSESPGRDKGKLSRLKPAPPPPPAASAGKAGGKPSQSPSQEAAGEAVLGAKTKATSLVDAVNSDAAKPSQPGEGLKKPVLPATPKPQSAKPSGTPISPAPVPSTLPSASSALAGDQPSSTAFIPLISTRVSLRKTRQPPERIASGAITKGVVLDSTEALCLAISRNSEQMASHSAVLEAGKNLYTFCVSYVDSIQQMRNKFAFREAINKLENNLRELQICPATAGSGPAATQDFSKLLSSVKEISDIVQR

Kd: 38.6 nM
Substance: NanoBRET tracer K-4 (Promega)

— article doi:10.1101/2021.06.28.449968v1 (biorxiv, 2021)
